Source: patent US20250186433A1, “ACSS2 INHIBITORS AND METHODS OF USE THEREOF” (EpiVario, Inc., priority 2017, published 2025)

Biological target: ACSS2 (Homo sapiens, UniProt Q9NR19)
Experiment: biochemical
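Note: Pyrophosphatase-coupled ACSS2 enzyme assay, 10 nM protein incubated 90 min at 37 °C with ATP, CoA and acetate, released phosphate read by Biomol Green absorbance at 620 nm.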

ACSS2, sequence (Q9NR19 whole entry): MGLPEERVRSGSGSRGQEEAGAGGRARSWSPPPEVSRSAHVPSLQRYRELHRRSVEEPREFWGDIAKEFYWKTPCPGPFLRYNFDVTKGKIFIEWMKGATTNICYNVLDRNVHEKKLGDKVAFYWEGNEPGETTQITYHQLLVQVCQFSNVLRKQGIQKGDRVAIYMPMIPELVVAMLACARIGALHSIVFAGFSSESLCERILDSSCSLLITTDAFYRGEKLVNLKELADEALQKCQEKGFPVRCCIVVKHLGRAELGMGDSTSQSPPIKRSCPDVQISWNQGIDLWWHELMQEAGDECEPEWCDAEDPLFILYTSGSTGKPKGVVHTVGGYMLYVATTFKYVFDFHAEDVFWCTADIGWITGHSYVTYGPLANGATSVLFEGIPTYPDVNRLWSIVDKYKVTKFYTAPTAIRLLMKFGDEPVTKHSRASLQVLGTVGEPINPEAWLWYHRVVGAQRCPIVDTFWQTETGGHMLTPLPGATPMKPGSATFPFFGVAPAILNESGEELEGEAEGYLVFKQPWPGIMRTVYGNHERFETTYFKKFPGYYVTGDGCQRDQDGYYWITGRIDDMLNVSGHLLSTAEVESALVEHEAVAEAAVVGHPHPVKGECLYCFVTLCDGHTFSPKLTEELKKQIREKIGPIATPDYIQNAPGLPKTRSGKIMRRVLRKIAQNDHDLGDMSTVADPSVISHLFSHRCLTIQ
Method: The assay is based on a coupling reaction with Pyrophosphatase: ACSS2 is converting ATP+CoA+Acetate=>AMP+pyrophosphate+Acetyl-CoA (Ac-CoA). Pyrophosphatase converts pyrophosphate, a product of the ACSS2 reaction, to phosphate which can be detected by measuring the absorbance at 620 nm after incubation with the Biomol green reagent (Enzo life Science, BML-AK111).
At the end of the reaction, Biomol Green was added for 30 minutes at RT and the activity was measured by reading the absorbance at 620 nm.

| SMILES | IC50 |
| --- | --- |
| CCC(F)(F)c1cccc(NC(=O)C2C(=O)N(c3ccc(OC)c(-c4cccc(C)n4)c3)N=C2C)c1 (centres unmarked) [compound 536, N-(3-(1,1-difluoropropyl)phenyl)-1-(4-methoxy-3-(6-methylpyridin-2-yl)phenyl)-3-methyl-5-oxo-4,5-dihydro-1H-pyrazole-4-carboxamide] | 0.01 to 6 nM |
| CCC(F)(F)c1cccc(NC(=O)C2C(=O)N(c3ccc(OC)c(-c4cc(C)ccn4)c3)N=C2C)c1 (centres unmarked) [compound 537, N-(3-(1,1-difluoropropyl)phenyl)-1-(4-methoxy-3-(4-methylpyridin-2-yl)phenyl)-3-methyl-5-oxo-4,5-dihydro-1H-pyrazole-4-carboxamide] | 0.01 to 6 nM |
